Common to all, as to experiment: NCI-60 cell line screen, 48 h
The subject of assay [1] is SK-OV-3 ovarian.
The test system of assay [2] is KM12 colon.
For assay [3], the system named is SW-620 colon.
Assay [4] has as its system HL-60(TB) leukemia.
Assay [5] deals with HCT-15 colon.
Assay [6] relates to NCI-H522 lung.
Assay [7] deals with IGROV1 ovarian.
The test system of assay [8] is ACHN renal.
Assay [9] concerns MOLT-4 leukemia.
In assay [10] the test system is LOX IMVI melanoma.

Molecules are shown by their SMILES.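 Growth conditions: 96-well plates. Treatment: test compound, 48 hours, 5 concentrations. Analysis: linear interpolation between bracketing concentrations; unreached endpoints set to highest concentration. Abbreviation: GI50, concentration required for 50% inhibition of growth. At the TGI there is no net growth.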

`COc1ccccc1CNCCCN1C(=O)c2ccc3c4c(ccc(c24)C1=O)C(=O)N(CCCNCCNCCCN)C3=O`: the GI50 in [1] was 4.04 µM; in [2], 3.25 µM; in assay [3] it was 1.74 µM; in assay [4] it was 2.54 µM; in assay [5] it was 12.2 µM; in [6], 1.22 µM. The GI50 in assay [7] was 3.69 µM; in assay [8], 4.45 µM; in assay [9], 1.73 µM; in [10], 2.1 µM. In addition, the TGI was determined as 26.3 µM in assay [1]; 11.4 µM in [2]; 8.91 µM in assay [3]; 6.34 µM in assay [4]; 26.8 µM in assay [5]; 3.71 µM in assay [6]. The TGI in assay [7] is 15.9 µM; in [8], 79.8 µM; in [9], 5.81 µM; in assay [10], 10.4 µM.

Turning to `C1=Cc2cc3c(c4nccc(c24)N1)OCO3`, the TGI is 55.9 µM in assay [1]; 23.6 µM in assay [2]; > 57.8 µM in [3]; > 100 µM in assay [4]; > 76.7 µM in [5]; 26.2 µM in [6]. The TGI in [7] is 8.24 µM; in assay [8], > 34.4 µM; in assay [9] it was > 46.8 µM; in assay [10], > 61.1 µM.

With `CC1=CCC(O)C=CC(C)C(O)C(C)C=C(C)C(=O)c2c(O)c(C)cc3c2C(=O)C(N)=C(NC(=O)/C=C\C=C/C=CC(C)C(O)CC1=O)C3=O` (stereo not given), the TGI is > 100 µM in assay [1]; > 100 µM in assay [2]; > 100 µM in assay [3]; 38.6 µM in assay [4]; > 100 µM in [5]; 35.3 µM in assay [6]. The TGI in assay [7], in [8], in assay [9] and in assay [10] was > 100 µM in each case.

Values taken from PubChem BioAssay (NCI).
